Assay results reported in PubChem BioAssay AID1963852 (Molecular Pharmacology Branch, DTP, NCI, 2024).

Test system: 282377-053-R-J1-PDC complex spheroid viability
Experiment: Anticancer human tumor 282377-053-R-J1-PDC patient-derived colon adenocarcinoma cell line growth inhibition [POLQ]
Settings: for IC50: curve of first compound; for viability, T/C: stronger effect = lower value
Protocol: Multicellular complex tumor spheroid response to Polymerase (POL) inhibitors (novobiocin, ART-558, RP6685) in combination with a variety of drugs and investigational agents in selected tumor cell lines
The POL inhibitors (novobiocin, ART-558, and RP6685) were evaluated both individually and in combination with standard of care and investigational anticancer small molecules within a complex spheroid model of solid tumors. . Complex spheroids include a stromal component modeled by human endothelial cells (HUVEC) and fibroblasts modeled by human mesenchymal stem cells (MSCs). The concentration ranges selected for each drug and investigational agent were based upon clinically achievable concentrations if the clinical Cmax of the agent was known.
Compounds. The drugs and investigational agents: novobiocin (NSC847541), ART-558 (NSC835418), RP-6685 (NSC848927), peposertib (NSC802822), ceralasertib (NSC780249), elimusertib (NSC800525), camonsertib (NSC841442), AZD-1390 (NSC803789), olaparib (NSC753686), talazoparib (NSC767125), rucaparib (NSC756644), sotorasib (NSC818433), MRTX-1133 (NSC836407), SN-38 (NSC673596), topotecan (NSC609699), epotoside (NSC141540), doxorubicin (NSC123127), gemcitabine (NSC613327), 5-fluorouracil (NSC19893), paclitaxel (NSC125973), vemurafenib (NSC761431), MSA-2 (NSC828583), SN-011 (NSC837082), adavosertib (NSC754352), prexasertib (NSC758257), carboplatin (NSC241240) and oxaliplatin (NSC266046), were obtained from the National Cancer Institute (NCI) Developmental Therapeutics Program Chemical Repository (21). The FDA-approved anticancer drug set is available from the Developmental Therapeutics Program at https://dtp.cancer.gov/organization/dscb/obtaining/. […] The stock solutions were prepared in dimethyl sulfoxide (DMSO, Sigma-Aldrich, St. Louis, MO, cat. D2650), except for the platinum compounds which were prepared in saline (Quality Biological, Gaithersburg, MD, cat. 114-055-101), at 800-fold the tested concentration and stored at -70 degrees C prior to their use. All drugs and investigational agents were tested over a range starting from a high concentration at or near the clinical Cmax and decreasing in half-log increments. If the clinical Cmax for an agent had not been determined, the highest concentration tested was 10 microM, except for SN-38, which was tested at a high concentration of 1 microM.
Cell Culture. All cells were maintained in an incubator at 37 degrees C and 5% CO2 with 95% humidity. The PDC lines were cultured according to standard operating procedures established by the NCI PDMR (https://pdmr.cancer.gov). Table 3 of the manuscript, lists the cell lines along with the number of the three cell types plated to form the mct-spheroids and media for tumor cell growth. After thawing, all PDC lines, except 997537-175-T-J1-PDC and 415267-285-R-J2-PDC, were cultured in Matrigel-coated flasks prepared with a working solution of 1X Ham's F-12 nutrient mix, without supplementation (Thermo Fisher Scientific, cat. 11765054), 100 U/mL penicillin-streptomycin (Thermo Fisher Scientific, cat. 15140122), and 2.5% Matrigel (Corning Inc., Corning, NY, cat. 354248) for the first three passages. The two PDC lines 997537-175-T-J1-PDC and 415267-285-R-J2-PDC were cultured on uncoated flasks. The 857933-349-R-J2-PDC line was cultured in 6C/Colon 1B media containing advanced DMEM/F-12 (Thermo Fisher Scientific, cat. 12634028), 10 mM HEPES (Thermo Fisher Scientific, cat. 15630080), 1X GlutaMAX supplement (Thermo Fisher Scientific, cat. 35050061), 0.1 mg/mL primocin (InvivoGen, San Diego, CA, cat. ant-pm-2), 10% defined fetal bovine serum, heat inactivated (HyClone Laboratories Inc., Logan, UT, cat. SH30070.03HI), 50% L-WRN conditioned media (ATCC, cat. CRL-3276), 1.25 mM N-Acetyl-L-cysteine (Sigma-Aldrich, cat. A9165), 10 mM nicotinamide (Sigma-Aldrich, cat. N0636), 1X B-27 supplement (Thermo Fisher Scientific, cat. 17504044), 1X N-2 supplement (Thermo Fisher Scientific, cat. […]

[1] = second compound 0.0316 µM, first compound 0.0316 µM
[2] = second compound 0.0316 µM, first compound 0.1 µM
[3] = second compound 0.0316 µM, first compound 0.316 µM
[4] = second compound 0.0316 µM, first compound 1 µM
[5] = second compound 0.0316 µM, first compound 3.16 µM
[6] = second compound 0.0316 µM, first compound 10 µM
[7] = second compound 0.1 µM, first compound 0.0316 µM
[8] = second compound 0.1 µM, first compound 0.1 µM
[9] = second compound 0.1 µM, first compound 0.316 µM
[10] = second compound 0.1 µM, first compound 1 µM
[11] = second compound 0.1 µM, first compound 3.16 µM
[12] = second compound 0.1 µM, first compound 10 µM
[13] = second compound 0.316 µM, first compound 0.0316 µM
[14] = second compound 0.316 µM, first compound 0.1 µM
[15] = second compound 0.316 µM, first compound 0.316 µM
[16] = second compound 0.316 µM, first compound 1 µM
[17] = second compound 0.316 µM, first compound 3.16 µM
[18] = second compound 0.316 µM, first compound 10 µM
[19] = second compound 1 µM, first compound 0.0316 µM
[20] = second compound 1 µM, first compound 0.1 µM
[21] = second compound 1 µM, first compound 0.316 µM
[22] = second compound 1 µM, first compound 1 µM
[23] = second compound 1 µM, first compound 3.16 µM
[24] = second compound 1 µM, first compound 10 µM
[25] = second compound 3.16 µM, first compound 0.0316 µM
[26] = second compound 3.16 µM, first compound 0.1 µM
[27] = second compound 3.16 µM, first compound 0.316 µM
[28] = second compound 3.16 µM, first compound 1 µM
[29] = second compound 3.16 µM, first compound 3.16 µM
[30] = second compound 3.16 µM, first compound 10 µM
[31] = second compound 10 µM, first compound 0.0316 µM
[32] = second compound 10 µM, first compound 0.1 µM
[33] = second compound 10 µM, first compound 0.316 µM
[34] = second compound 10 µM, first compound 1 µM
[35] = second compound 10 µM, first compound 3.16 µM
[36] = second compound 10 µM, first compound 10 µM
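Also: spheroids exposed to compounds for seven days.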
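For viability, T/C in this document: 100% = DMSO vehicle control viability.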

Compound: COc1cc(C2c3cc4c(cc3C(OC3OC5COC(C)OC5C(O)C3O)C3COC(=O)C23)OCO4)cc(OC)c1O (stereo unspecified) + COC1C(OC(N)=O)C(O)C(Oc2ccc3c(O)c(NC(=O)c4ccc(O)c(CC=C(C)C)c4)c(=O)oc3c2C)OC1(C)C
- IC50 (second compound 0.0316 µM): > 10 µM
- IC50 (second compound 0.1 µM): > 10 µM
- IC50 (second compound 0.316 µM): 9.29 µM
- IC50 (second compound 1 µM): 8.39 µM
- IC50 (second compound 3.16 µM): > 10 µM
- IC50 (second compound 10 µM): > 10 µM
- viability, T/C [1]: 95.7%
- viability, T/C [2]: 111%
- viability, T/C [3]: 97.1%
- viability, T/C [4]: 80%
- viability, T/C [5]: 78.3%
- viability, T/C [6]: 49.5%
- viability, T/C [7]: 75.8%
- viability, T/C [8]: 92.8%
- viability, T/C [9]: 102%
- viability, T/C [10]: 90.7%
- viability, T/C [11]: 67.9%
- viability, T/C [12]: 53.5%
- viability, T/C [13]: 101%
- viability, T/C [14]: 80.1%
- viability, T/C [15]: 85.3%
- viability, T/C [16]: 77%
- viability, T/C [17]: 73.8%
- viability, T/C [18]: 46%
- viability, T/C [19]: 89%
- viability, T/C [20]: 86.8%
- viability, T/C [21]: 86%
- viability, T/C [22]: 81.1%
- viability, T/C [23]: 77.3%
- viability, T/C [24]: 45%
- viability, T/C [25]: 76.5%
- viability, T/C [26]: 96.1%
- viability, T/C [27]: 97.2%
- viability, T/C [28]: 89.8%
- viability, T/C [29]: 70.1%
- viability, T/C [30]: 51.7%
- viability, T/C [31]: 87.4%
- viability, T/C [32]: 83.2%
- viability, T/C [33]: 118%
- viability, T/C [34]: 68.5%
- viability, T/C [35]: 70.3%
- viability, T/C [36]: 53%

Compound: COc1cccc2c1C(=O)c1c(O)c3c(c(O)c1C2=O)CC(O)(C(=O)CO)CC3OC1CC(N)C(O)C(C)O1 (stereo unspecified) + COC1C(OC(N)=O)C(O)C(Oc2ccc3c(O)c(NC(=O)c4ccc(O)c(CC=C(C)C)c4)c(=O)oc3c2C)OC1(C)C
- IC50 (second compound 0.0316 µM): 0.273 µM
- IC50 (second compound 0.1 µM): 0.323 µM
- IC50 (second compound 0.316 µM): 0.284 µM
- IC50 (second compound 1 µM): 0.386 µM
- IC50 (second compound 3.16 µM): 0.289 µM
- IC50 (second compound 10 µM): 0.378 µM
- viability, T/C [1]: 92.3%
- viability, T/C [2]: 81%
- viability, T/C [3]: 43.9%
- viability, T/C [4]: 17.5%
- viability, T/C [5]: 1.11%
- viability, T/C [6]: 2.81%
- viability, T/C [7]: 117%
- viability, T/C [8]: 82.7%
- viability, T/C [9]: 57.6%
- viability, T/C [10]: 16.5%
- viability, T/C [11]: 0.71%
- viability, T/C [12]: 2.97%
- viability, T/C [13]: 95.5%
- viability, T/C [14]: 84.9%
- viability, T/C [15]: 44.9%
- viability, T/C [16]: 16.1%
- viability, T/C [17]: 0.67%
- viability, T/C [18]: 2.69%
- viability, T/C [19]: 97.1%
- viability, T/C [20]: 88.6%
- viability, T/C [21]: 58%
- viability, T/C [22]: 14.3%
- viability, T/C [23]: 1.36%
- viability, T/C [24]: 2.91%
- viability, T/C [25]: 90.2%
- viability, T/C [26]: 88.9%
- viability, T/C [27]: 44.8%
- viability, T/C [28]: 13.7%
- viability, T/C [29]: 0.83%
- viability, T/C [30]: 2.03%
- viability, T/C [31]: 84.4%
- viability, T/C [32]: 76.8%
- viability, T/C [33]: 56.8%
- viability, T/C [34]: 16.3%
- viability, T/C [35]: 2.09%
- viability, T/C [36]: 3.61%

Compound: O=c1[nH]cc(F)c(=O)[nH]1 + COC1C(OC(N)=O)C(O)C(Oc2ccc3c(O)c(NC(=O)c4ccc(O)c(CC=C(C)C)c4)c(=O)oc3c2C)OC1(C)C
- IC50 (second compound 0.0316 µM): > 10 µM
- IC50 (second compound 0.1 µM): > 10 µM
- IC50 (second compound 0.316 µM): > 10 µM
- IC50 (second compound 1 µM): > 10 µM
- IC50 (second compound 3.16 µM): > 10 µM
- IC50 (second compound 10 µM): > 10 µM
- viability, T/C [1]: 112%
- viability, T/C [2]: 89%
- viability, T/C [3]: 104%
- viability, T/C [4]: 92%
- viability, T/C [5]: 74.6%
- viability, T/C [6]: 66.9%
- viability, T/C [7]: 109%
- viability, T/C [8]: 107%
- viability, T/C [9]: 90.9%
- viability, T/C [10]: 89.7%
- viability, T/C [11]: 72.1%
- viability, T/C [12]: 71%
- viability, T/C [13]: 112%
- viability, T/C [14]: 125%
- viability, T/C [15]: 97.1%
- viability, T/C [16]: 81.5%
- viability, T/C [17]: 77.7%
- viability, T/C [18]: 71.1%
- viability, T/C [19]: 112%
- viability, T/C [20]: 97.9%
- viability, T/C [21]: 94.4%
- viability, T/C [22]: 86.4%
- viability, T/C [23]: 79.6%
- viability, T/C [24]: 71.2%
- viability, T/C [25]: 102%
- viability, T/C [26]: 101%
- viability, T/C [27]: 88.1%
- viability, T/C [28]: 100%
- viability, T/C [29]: 80.7%
- viability, T/C [30]: 66.8%
- viability, T/C [31]: 105%
- viability, T/C [32]: 103%
- viability, T/C [33]: 115%
- viability, T/C [34]: 98%
- viability, T/C [35]: 82.2%
- viability, T/C [36]: 63.5%
